In paper PMC9250534, “Synthesis and direct assay of large macrocycle diversities by combinatorial late-stage modification at picomole scale” (Nature Communications, 2022):
Numbered stars: 1 amine (or outer) side, 2 acyl side, 3 side chain; on linkers, the order of the positions; unused ones are H or OH. Bridge positions count the residues as written; N and C are the ends. Square brackets hold non-standard residues; d marks the D form. Peptide text beside a SMILES is read from it. * marks the point of attachment. Pro(4S-NHCO(5-Cl-2-thienyl)) = O=C(N[C@@H]1CN[C@H](C(=O)O)C1)c1ccc(Cl)s1; 1,2,3Thiadiazole5CO(4-Me) = Cc1nnsc1C(=O)*; 2Thenoyl(5-Cl) = O=C(c1ccc(Cl)s1)*; Cysteamide = C(CS[*:3])N[*:1]; X3 = O=C(Cc1c[nH]c2ccccc12)*; 4Amb = NCc1ccc(C(=O)O)cc1; Orn = NCCC[C@H](N)C(=O)O; 2Furoyl = O=C(c1ccco1)*; Api = NC1(C(=O)O)CCNCC1; Bz = O=C(c1ccccc1)*; Mpa = O=C(O)CCS

Molecular target: T1, thrombin (Homo sapiens, UniProt P00734)
T1 construct: consists of two polypeptide chains of 36 (light chain) and 259 amino acid
Test: Thrombin inhibition screen of crude macrocycle reactions (residual thrombin activity, fluorogenic substrate Z-Gly-Gly-Arg-AMC)
Assay type: biochemical
Settings: 10 µM macrocycle concentration; for percent residual thrombin activity: crude reactions, Library 1a-l, scaffold AA1-AA2-AA3 combined with 1-16 or '-'; for % thrombin activity, Original screen / % thrombin activity, Repeat screen: macrocycles containing acid 14, crude reaction; for % thrombin activity, Repeat screen: replicate reaction and screen
How it was run: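 Each crude macrocycle (10 μM) was preincubated 10 min at room temperature with thrombin (2 nM final) in Tris-Cl pH 7.4 containing NaCl, MgCl2, CaCl2, 0.1% BSA, 0.01% Triton X-100 and 0.6% DMSO. Z-Gly-Gly-Arg-AMC (50 μM final) was then added. Inhibition came from fluorescence slopes relative to DMSO-only controls.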

| Structure (SMILES) | percent residual thrombin activity | % thrombin activity, Original screen | % thrombin activity, Repeat screen |
| --- | --- | --- | --- |
| NCCCC[C@@H]1NC(=O)[C@@H](Cc2c[nH]c3ccccc23)NC(=O)[C@H]2CCCN(C2)C(=O)CCSSCCNC1=O [B4-w-D1/-] | 108.066% | – | – |
| O=C1CCSSCCNC(=O)[C@H](Cc2c[nH]c3ccccc23)NC(=O)[C@H](CCCNC(=O)c2c[nH]c(=O)[nH]c2=O)NC(=O)C2(CC2)CN1 [B6-D2-W/11] | 94.9215% | – | – |
| O=C1CCSSCCNC(=O)c2cccc(c2)CNC(=O)[C@@H](CNC(=O)c2ccc(Cl)s2)NC(=O)[C@@H](Cc2c[nH]c3ccccc23)N1 [X w D4 B5] | – | 95.1% | 100.3% |
| O=C1CCNC(=O)[C@H](Cc2c[nH]cn2)NC(=O)CCSSCCNC(=O)[C@H](CCCNC(=O)c2ccc(Cl)s2)N1 [H-B2-D2/14] | 94.6113% | – | – |
| CC(C)[C@H]1NC(=O)c2cccc(c2)CNC(=O)[C@H](CCCNC(=O)c2ccco2)NC(=O)CCSSCCNC1=O [D2-B5-v/16] | 103.718% | – | – |
| O=C1CCNC(=O)[C@@H](CO)NC(=O)CCSSCCNC(=O)[C@H](CCCCNC(=O)c2c[nH]c(=O)cn2)N1 [s-B2-D1/9] | 109.681% | – | – |
| O=C1CCSSCCNC(=O)[C@H]2CCCN(C2)C(=O)[C@H](CCCCNC(=O)c2c[nH]c(=O)cn2)NC(=O)[C@H](Cc2ccc(O)cc2)N1 [Y-D1-B4/9] | 103.469% | – | – |
| Cc1nnsc1C(=O)NCCCC[C@@H]1NC(=O)[C@H](C(C)C)NC(=O)CCSSCCNC(=O)[C@@H]2CCCN2C1=O [V-D1-B1/15] ([Mpa]VK(1,2,3Thiadiazole5CO(4-Me))P-Cysteamide; disulfide 1-C) | 114.617% | – | – |
| CC(C)C[C@@H]1NC(=O)C2(CC2)CNC(=O)CNC(=O)[C@@H](NC(=O)c2ccc(Cl)s2)CSSCCNC1=O [C G B6 L] | – | 109.3% | 114.8% |
| Cc1nnsc1C(=O)NCCCC[C@@H]1NC(=O)[C@H](C(C)C)NC(=O)CCSSCCNC(=O)[C@@H]2CCCN2C1=O [v-D1-B1/15] ([Mpa]VK(1,2,3Thiadiazole5CO(4-Me))P-Cysteamide; disulfide 1-C) | 105.611% | – | – |
| O=C1CCSSCCNC(=O)C2CC(NC(=O)c3ccc(Cl)s3)CN2C(=O)CCNC(=O)C(Cc2ccccc2)N1 (centres unmarked) [X f B2 D5] | – | 95.3% | 101.2% |
| O=C1CCSSCCNC(=O)[C@H](CCCCNC(=O)Cc2c[nH]c3ccccc23)NC(=O)[C@H](Cc2ccc(O)cc2)NC(=O)C2(CC2)CN1 [B6-Y-D1/12] | 101.278% | – | – |
| O=C(COc1ccccc1)NCCCC[C@@H]1NC(=O)CCSSCCNC(=O)c2ccc(cc2)CNC(=O)[C@H](CO)NC1=O [D1-S-B3/13] | 115.568% | – | – |
| NC(=O)CC[C@@H]1NC(=O)[C@@H]2C[C@H](NC(=O)c3ccc(Cl)s3)CN2C(=O)[C@@H]2CCCN2C(=O)CCSSCCNC1=O [X B1 D5 Q] ([Mpa]P[Pro(4S-NHCO(5-Cl-2-thienyl))]Q-Cysteamide; disulfide 1-C) | – | 96.1% | 98.4% |
| Cc1nnsc1C(=O)NCCCC[C@@H]1NC(=O)CCSSCCNC(=O)[C@H](CO)NC(=O)c2ccc(cc2)CNC1=O [D1-B3-S/15] | 103.115% | – | – |
| O=C1CCSSCCNC(=O)[C@H](CCCCNC(=O)COc2ccccc2)NC(=O)[C@H](Cc2ccc(O)cc2)NC(=O)C2(CC2)CN1 [B6-Y-D1/13] | 106.992% | – | – |
| O=C1CCSSCCNC(=O)[C@H](CCCNC(=O)c2ccc(Cl)s2)NC(=O)[C@H](Cc2ccccc2)NC(=O)c2cccc(c2)CN1 [X B5 F D2] | – | 81.9% | 80.4% |
| O=C1CCSSCCNC(=O)[C@@H]2CCCN2C(=O)[C@H](CCCCNC(=O)c2ccccc2)NC(=O)[C@H](Cc2c[nH]c3ccccc23)N1 [W-D1-B1/1] ([Mpa]WK(Bz)P-Cysteamide; disulfide 1-C) | 101.199% | – | – |
| C[C@H]1NC(=O)CCSSCCNC(=O)[C@H](CCCCNC(=O)c2ccco2)NC(=O)CCNC1=O [a-B2-D1/16] | 107.587% | – | – |
| CC[C@H](C)[C@@H]1NC(=O)[C@H](CCCCNC(=O)c2ccco2)NC(=O)CCSSCCNC(=O)C2(CC2)CNC1=O [D1-I-B6/16] | 103.501% | – | – |
| CC(C)C[C@@H]1NC(=O)CCSSCCNC(=O)[C@H](CCCCNC(=O)c2cnccn2)NC(=O)C2(CC2)CNC1=O [L-B6-D1/2] | 107.636% | – | – |
| Cc1cc(C(=O)NCCC[C@@H]2NC(=O)CCSSCCNC(=O)[C@H](Cc3cnc[nH]3)NC(=O)c3cccc(c3)CNC2=O)no1 [D2-B5-H/3] | 99.7053% | – | – |
| CC(C)[C@H]1NC(=O)c2cccc(c2)CNC(=O)[C@H](CCCNC(=O)c2ccc(Cl)s2)NC(=O)CCSSCCNC1=O [D2-B5-v/14] | 98.5757% | – | – |

| Structure (SMILES) | percent residual thrombin activity | % thrombin activity, Original screen | % thrombin activity, Repeat screen |
| --- | --- | --- | --- |
| Cc1nnsc1C(=O)NCCCC[C@@H]1NC(=O)CCSSCCNC(=O)C2(CC2)CNC(=O)[C@H](Cc2cnc[nH]2)NC1=O [D1-H-B6/15] | 113.747% | – | – |
| CC1NC(=O)C2CCCN2C(=O)C(CCCCNC(=O)c2ccc(Cl)s2)NC(=O)CCSSCCNC1=O (centres unmarked) [D1-B1-a/14] ([Mpa]K(2Thenoyl(5-Cl))PA-Cysteamide; disulfide 1-C; configuration not given here) | 96.3758% | – | – |
| O=C1CCSSCCNC(=O)[C@H](CCCCNC(=O)c2ccco2)NC(=O)c2cccc(c2)CNC(=O)[C@H](CO)N1 [S-B5-D1/16] | 112.778% | – | – |
| NCCCC[C@@H]1NC(=O)[C@@H](CO)NC(=O)[C@@H]2CCCN2C(=O)CCSSCCNC1=O [B1-s-D1/-] ([Mpa]P[dS]K-Cysteamide; disulfide 1-C) | 113.487% | – | – |
| CC(C)CC(=O)NCCCC[C@@H]1NC(=O)CCSSCCNC(=O)C2(CC2)CNC(=O)[C@H](C(C)C)NC1=O [D1-V-B6/8] | 110.303% | – | – |
| O=C(NCCCC[C@@H]1NC(=O)[C@@H](Cc2c[nH]c3ccccc23)NC(=O)[C@H]2CCCN(C2)C(=O)CCSSCCNC1=O)c1ccc(Cl)s1 [B4-w-D1/14] | 105.59% | – | – |
| CC1NC(=O)CCSSCCNC(=O)C2CCCN2C(=O)C(CCCCNC(=O)c2ccco2)NC1=O (centres unmarked) [a-D1-B1/16] ([Mpa]AK(2Furoyl)P-Cysteamide; disulfide 1-C; configuration not given here) | 113.28% | – | – |
| NCCC[C@@H]1NC(=O)CCSSCCNC(=O)c2ccc(cc2)CNC(=O)[C@H](Cc2c[nH]c3ccccc23)NC1=O [D2-W-B3/-] ([Mpa][Orn]W[4Amb]-Cysteamide; disulfide 1-C) | 110.008% | – | – |
| O=C1CNC(=O)[C@@H]2CCCN2C(=O)[C@@H](NC(=O)c2ccc(Cl)s2)CSSCCNC(=O)[C@H](Cc2ccccc2)N1 [C B1 G F] ({2Thenoyl(5-Cl)}-CPGF-Cysteamide; disulfide 1-C) | – | 91.5% | 96.1% |
| C[C@H]1NC(=O)CCSSCCNC(=O)[C@@H]2CCCN2C(=O)[C@H](CCCCNC(=O)Cc2c[nH]c3ccccc23)NC1=O [a-D1-B1/12] ([Mpa][dA]K(X3)P-Cysteamide; disulfide 1-C) | 113.455% | – | – |
| O=C1CCNC(=O)[C@H](Cc2c[nH]cn2)NC(=O)CCSSCCNC(=O)[C@H](CCCNC(=O)c2c[nH]c(=O)[nH]c2=O)N1 [H-B2-D2/11] | 112.021% | – | – |
| O=C1CCSSCCNC(=O)[C@@H](CNC(=O)c2ccc(Cl)s2)NC(=O)[C@H](Cc2c[nH]c3ccccc23)NC(=O)CCN1 [X B2 W D4] | – | 61.5% | 68.8% |
| COc1ccc(C(=O)NCCCC[C@@H]2NC(=O)CCSSCCNC(=O)c3ccc(cc3)CNC(=O)[C@H](CO)NC2=O)cn1 [D1-S-B3/10] | 111.469% | – | – |
| CC(C)C1NC(=O)C2(CCN(C(=O)c3ccc(Cl)s3)CC2)NC(=O)CCSSCCNC(=O)C2CCCN(C2)C1=O (centres unmarked) [X D6 V B4] | – | 81.5% | 80.4% |
| O=C1CCSSCCNC(=O)[C@H](CCCCNC(=O)c2ccccc2)NC(=O)C2(CC2)CNC(=O)[C@H](Cc2c[nH]c3ccccc23)N1 [W-B6-D1/1] | 92.2757% | – | – |
| COc1ccc(C(=O)NCCC[C@@H]2NC(=O)C3(CC3)CNC(=O)CCSSCCNC(=O)[C@H](Cc3ccc(O)cc3)NC2=O)cn1 [B6-D2-Y/10] | 102.307% | – | – |
| COc1ccc(C(=O)NCCCC[C@@H]2NC(=O)[C@H](C(C)C)NC(=O)c3ccc(cc3)CNC(=O)CCSSCCNC2=O)cn1 [B3-V-D1/10] | 106.658% | – | – |
| CC[C@H](C)[C@@H]1NC(=O)[C@H](CCCNC(=O)c2ccc(Cl)s2)NC(=O)c2cccc(c2)CNC(=O)CCSSCCNC1=O [X B5 D2 I] | – | 86.0% | 83.0% |
| O=C1CCSSCCNC(=O)[C@H](CCCCNC(=O)c2ccccc2)NC(=O)[C@H](Cc2ccc(O)cc2)NC(=O)C2(CC2)CN1 [B6-Y-D1/1] | 104.596% | – | – |
| O=C1NC2(CCN(C(=O)c3ccc(Cl)s3)CC2)C(=O)NCCSSCCC(=O)N2CCCC2C(=O)NC1Cc1c[nH]c2ccccc12 (centres unmarked) [X B1 w D6] ([Mpa]PW[Api](2Thenoyl(5-Cl))-Cysteamide; disulfide 1-C; configuration not given here) | – | 94.1% | 97.2% |
| O=C1CCSSCCNC(=O)[C@H](Cc2c[nH]c3ccccc23)NC(=O)[C@H](CCCNC(=O)c2cnccn2)NC(=O)C2(CC2)CN1 [B6-D2-W/2] | 95.9188% | – | – |
| O=C(COc1ccccc1)NCCCC[C@@H]1NC(=O)C2(CC2)CNC(=O)[C@H](Cc2c[nH]c3ccccc23)NC(=O)CCSSCCNC1=O [W-B6-D1/13] | 88.7647% | – | – |
| O=C1CCSSCCNC(=O)[C@H]2CCCN(C2)C(=O)[C@H](CCCCNC(=O)c2c[nH]c(=O)[nH]c2=O)NC(=O)[C@H](Cc2ccc(O)cc2)N1 [Y-D1-B4/11] | 107.832% | – | – |
